In paper PMC8003416, “Modulation of Human Phenylalanine Hydroxylase by 3-Hydroxyquinolin-2(1H)-One Derivatives” (Biomolecules, 2021):
“Also recorded” adds a separate entry of the source. Like-named read-outs stand apart in the source and are kept apart here.

Key:
[1] = target: T1, human phenylalanine hydroxylase (hPAH) (Homo sapiens, UniProt P00439); experiment: Surface plasmon resonance, immobilized hPAH; type: binding; details: for Kd / KD (steady-state affinity constant): 25 °C, 3HQs up to 200 μM, no saturation (lower limits); for Kd: read-out: KD (steady-state affinity constant)
T1 construct: Recombinant full-length wild-type (WT) hPAH was expressed in E. coli Top10 cells in fusion with a hexa-histidyl peptide; made in house; host or cells: E. coli Top10
T1 sequence (P00439 1-452): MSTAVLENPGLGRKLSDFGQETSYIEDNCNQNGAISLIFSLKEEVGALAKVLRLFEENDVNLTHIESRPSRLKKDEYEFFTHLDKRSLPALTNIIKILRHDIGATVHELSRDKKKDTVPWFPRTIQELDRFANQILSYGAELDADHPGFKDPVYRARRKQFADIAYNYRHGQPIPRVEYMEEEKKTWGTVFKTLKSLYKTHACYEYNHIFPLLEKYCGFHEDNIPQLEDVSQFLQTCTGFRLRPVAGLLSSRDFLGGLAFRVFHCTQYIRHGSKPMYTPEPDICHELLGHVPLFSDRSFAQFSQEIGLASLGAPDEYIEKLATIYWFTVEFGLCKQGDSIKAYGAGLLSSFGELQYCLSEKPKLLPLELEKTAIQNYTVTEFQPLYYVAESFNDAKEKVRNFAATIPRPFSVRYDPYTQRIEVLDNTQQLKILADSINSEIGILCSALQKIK
Procedure: The affinity of hPAH for 3HQs was evaluated by surface plasmon resonance (SPR) using a Biacore 4000 (GE Healthcare) instrument. All assays were carried out at 25 °C. Optimization of hPAH immobilization on a carboxymethylated dextran (CM5) matrix of the sensor chip was initiated by performing a pH scouting, using as buffers 10 mM sodium acetate (pH 5.0, 5.2, 5.5 and 5.8), 10 mM Bis-Tris (pH 6.0, 6.2 and 6.5), and 10 mM sodium phosphate (pH 7.0). hPAH was diluted to 10 µg/mL in the best immobilization buffer (10 mM sodium acetate pH 5.5) and immobilized onto the CM5 sensor chip using the standard amine coupling procedure. The HBS-N buffer, consisting of 10 mM HEPES pH 7.4 and 150 mM NaCl, was used as background buffer. Prior to immobilization, the carboxymethylated surface of the chip was activated with a 1:1 ratio of 400 mM 1-ethyl-3-(3-dimethylaminopropyl)-carbodiimide and 100 mM N-hydroxysuccinimide for 10 min. The hPAH was coupled to the surface with a 1 to 2 min injection time at a flow rate of 10 μL/min in order to reach 2000 to 5000 RU. The remaining activated carboxymethylated groups were blocked with a 7 min injection of 1 M ethanolamine pH 8.5.
The 3HQs were directly diluted in running buffer (10 mM HEPES, 150 mM NaCl, 5 mM MgCl2, 0.1 mM EDTA, 0.05% (v/v) Tween-20, 1 mM DTT, pH 7.2, and 2% DMSO) and injected at ten different concentrations using two-fold dilutions series, from 200 µM to ≈ 0.4 μM. The interaction between hPAH and L-Phe in the ≈ 2–1000 μM range was also analyzed, for comparison with literature values. Moreover, L-Phe (at 1 mM) was used as a positive control to collect information on surface integrity and activity throughout the experiment. For competition experiments, 1 mM L-Phe was added to the running buffer. All sensorgrams were processed by first subtracting the binding response recorded from the control surface (reference spot), followed by subtracting an average of the buffer blank injections from the reaction spot. Interactions were assessed from the obtained plots of steady-state SPR response levels against 3HQs concentration, employing the provided Biacore 4000 evaluation software.

[2] = target: T1, human phenylalanine hydroxylase (hPAH); experiment: Steady-state kinetics of hPAH for L-Phe; type: biochemical; details: 100 μM 3HQ; for S0.5 (L-Phe concentration at half-maximal activity) / h (Hill coefficient) / ki (substrate inhibition): 75 μM BH4, 25 °C; for S0.5 (L-Phe concentration at half-maximal activity): Km for compounds 3 and 11 (Michaelis–Menten fits); for Vmax: 75 μM BH4, L-Phe 25 μM to 2.5 mM, 25 °C; for Activation Ratio (L-Phe activation): 100 μM substrate; for kcat/S0.5 (catalytic efficiency): calculated with hPAH subunit MM 55 kDa
Procedure: (§1) The hPAH activity was measured essentially as previously described. Briefly, the enzymatic reaction was performed in a 200 μL final volume, containing 250 mM Na-HEPES, pH 7, 0.1 mg/mL catalase (Sigma-Aldrich; St. Louis, MO, USA), 5 μg (final concentration of 0.112 μM of tetramer) of recombinant hPAH tetramers and 100 μM (NH4)2Fe(II)SO4. Using 100 μM L-Phe and 100 μM of tested compound, three experimental conditions were used to study the compounds’ modulatory effect, namely: non activated (NA), 3HQ-activated (3HQ-A) and substrate/3HQ-activated (Phe/3HQ-A) (Supplementary Figure S3). The reaction was started by addition of 75 μM BH4 (Schircks Laboratories; Bauma, Switzerland) prepared in 5 mM ascorbic acid. In the NA assay, the L-Phe substrate and tested compounds were added together with 75 µM BH4 at the start of the hydroxylation reaction. In the 3HQ-A condition, hPAH was pre-incubated with the tested compound for 4 min at 25 °C and the reaction was started by the addition of BH4 together with L-Phe. In the Phe/3HQ-A condition, hPAH was pre-incubated simultaneously with L-Phe and the tested compound (4 min, 25 °C). Appropriate control reactions were performed where the compounds were omitted and 1% DMSO was used. Kinetic parameters were determined using variable concentrations of L-Phe (25 to 2500 μM) and fixed concentrations of BH4 (75 μM) and tested compound (100 μM). After a 1-min incubation, the reaction was stopped, and the amount of L-Tyr produced was quantified by HPLC as previously described. The specific hPAH enzymatic activity is expressed as nmol of L-Tyr produced during 1 min per mg of protein (nmol L-Tyr.min^−1.mg^−1). The steady-state kinetic data were analyzed by nonlinear regression analysis using GraphPad Prism (La Jolla, CA, USA). Data was fitted to the modified Hill equation accounting for cooperative substrate binding as well as substrate inhibition (Equation (1)), to the modified Michaelis–Menten equation which accounts for substrate inhibition (Equation (2)) and to the non-modified Michaelis–Menten equation:v = (Vmax + Vi ([S]^x/Ki^x))/(1 + (K^h/[S]^h) + ([S]^x/Ki^x))(1) v = (Vmax [S])/(Km + [S](1 + [S]/Ki))(2)

[3] = target: T1, human phenylalanine hydroxylase (hPAH); experiment: hPAH enzymatic activity assay (NA, 3HQ-A and Phe/3HQ-A conditions); type: biochemical; details: 100 μM compound; for remaining activity at 100 µM: read-out: hPAH residual activity vs control
Procedure: as §1

| ΔRU reduction in the presence of L-Phe ([1]; 1 mM L-Phe in running buffer) [%] | Kd [1] [µM] | kcat/S0.5 (catalytic efficiency) [2] [M⁻¹ s⁻¹] | remaining activity at 100 µM ([3]; 3HQ-A condition (4 min pre-incubation with compound, 25 °C)) [%] | hPAH activity, fold increase vs control ([3]; NA (non-activated) condition, 100 μM L-Phe, 1% DMSO control) [fold] | remaining activity at 100 µM ([3]; Phe/3HQ-A condition (pre-incubation with L-Phe and compound)) [%] | SMILES | effect on hPAH kinetic behaviour [2] | S0.5 (L-Phe concentration at half-maximal activity) [2] [µM] | Vmax [2] | Activation Ratio (L-Phe activation) [2] | fold activation by L-Phe (Phe/3HQ-A vs. 3HQ-A) ([3]; 100 μM L-Phe) [fold] | KD (steady-state affinity constant) [1] | h (Hill coefficient) [2] | ki (substrate inhibition) [2] [mM] | remaining activity at 100 µM ([3]; NA (non-activated) condition) [%] | fold enzyme activation by compound (3HQ-A vs. NA) [3] [fold] |
| --- | --- | --- | --- | --- | --- | --- | --- | --- | --- | --- | --- | --- | --- | --- | --- | --- |
| > 50 | ≥ 121 | 21700 | 69 | 1.1 | 57 | CCOC(=O)[C@H](Cc1ccccc1)NC(=O)c1c(O)c(=O)[nH]c2ccc(OC(F)(F)F)cc12 [Compound 3] | weak competitive inhibitors; also recorded: loss of cooperativity | 206 ± 99 | 4.82 ± 0.64 10^3 nmol Tyr.min^−1.mg^−1 | 1.3 | 1.3 |  |  |  |  |  |
|  | 47 ± 8 |  |  |  |  | N[C@@H](Cc1ccccc1)C(=O)O [L-Phe, L-phenylalanine, reference compound] |  |  |  |  |  |  |  |  |  |  |
|  | ≥ 200 | 35000 |  |  |  | O=C(NCCc1ccccc1)c1c(O)c(=O)[nH]c2ccc(OC(F)(F)F)cc12 [Compound 8] | weak competitive inhibitors | 115 ± 9 | 4.38 ± 0.94 10^3 nmol Tyr.min^−1.mg^−1 | 1.7 | 1.7 |  | 1.2 ± 0.3 | 7.2 ± 0.2 |  |  |
|  |  |  |  |  |  | COC(=O)CNC(=O)c1c(O)c(=O)[nH]c2ccc(OC(F)(F)F)cc12 [Compound 11] | loss of cooperativity | 386 ± 97 | 7.75 ± 1.23 ** 10^3 nmol Tyr.min^−1.mg^−1 | 1.5 | 1.5 | at least mM affinity |  | 2.5 ± 0.3 |  | 1.6 |

| SMILES | ΔRU reduction in the presence of L-Phe ([1]; 1 mM L-Phe in running buffer) [%] | Kd [1] [µM] | kcat/S0.5 (catalytic efficiency) [2] [M⁻¹ s⁻¹] | remaining activity at 100 µM ([3]; 3HQ-A condition (4 min pre-incubation with compound, 25 °C)) [%] | hPAH activity, fold increase vs control ([3]; NA (non-activated) condition, 100 μM L-Phe, 1% DMSO control) [fold] | remaining activity at 100 µM ([3]; Phe/3HQ-A condition (pre-incubation with L-Phe and compound)) [%] | effect on hPAH kinetic behaviour [2] | S0.5 (L-Phe concentration at half-maximal activity) [2] [µM] | Vmax [2] | Activation Ratio (L-Phe activation) [2] | fold activation by L-Phe (Phe/3HQ-A vs. 3HQ-A) ([3]; 100 μM L-Phe) [fold] | KD (steady-state affinity constant) [1] | h (Hill coefficient) [2] | ki (substrate inhibition) [2] [mM] | remaining activity at 100 µM ([3]; NA (non-activated) condition) [%] | fold enzyme activation by compound (3HQ-A vs. NA) [3] [fold] |
| --- | --- | --- | --- | --- | --- | --- | --- | --- | --- | --- | --- | --- | --- | --- | --- | --- |
| COC(=O)CC[C@H](NC(=O)c1c(O)c(=O)[nH]c2ccc(OC(F)(F)F)cc12)C(=O)OC [Compound 9] |  |  | 33300 |  |  |  |  | 108 ± 34 | 3.94 ± 0.64 10^3 nmol Tyr.min^−1.mg^−1 | 1.4 | 1.4 | at least mM affinity | 1.9 ± 0.8 | 23.3 ± 0.5 | 58 |  |
